Source: patent US6008239A, “Triazole derivative or salt thereof” (SSP Co., Ltd., priority 1997, dated 1999)
≈ marks a conversion by molar mass, not a printed value.

Columns and labels:
[1] = system: C. albicans ATCC 44859; assay: Antifungal Activity Against Candida albicans (In vitro); type: cell-based; settings: ATCC44859, MEM + 10% fetal bovine serum, 37° C., 24 hours, CO2 incubator, read-out: Terminal point (minimum medicament concentration permitting apparent suppression of mycerial type growth)
Method: Test 1: Antifungal Activity Against Candida albicans (In vitro)
They were incubated at 37° C. for 24 hours in a CO2 gas incubator. After incubation, a morphological change of C. albicans was observed under an inverted microscope. The minimum medicament concentration permitting the apparent suppression of mycerial type growth compared with that of a medicament-free control was determined as a terminal point (ng/ml).

[2] = system: A. fumigatus IFM 40808; assay: Antifungal Activity Against Aspergillus fumigatus (In vitro); type: cell-based; settings: IFM40808, RPMI 1640 with 0.165M MOPS, pH 7, 35° C., 24 hours
Method: Test 2: Antifungal Activity Against Aspergillus fumigatus (In vitro)
(§1) They were incubated at 35° C. for 24 hours. After incubation, the minimum medicament concentration permitting the apparent suppression of mycerial type growth compared with that of a medicament-free control was determined as an MIC value (μg/ml).

[3] = system: A. flavus IFM 41935; assay: Antifungal Activity Against Aspergillus flavus (In vitro); type: cell-based; settings: IFM41935, RPMI 1640 with 0.165M MOPS, pH 7, 35° C., 24 hours
Method: Test 3: Antifungal Activity Against Aspergillus flavus (In vitro)
as §1

[4] = system: C. albicans IFM 40009; assay: Antifungal Activity Against Candida albicans (In vivo), survival of infected mice; design: species or system Candida albicans in male ICR (CRJ: CD-1) mice; settings: i.v. C. albicans infection, oral 1.25 mg/kg, four times in total; for Survival days: 14 days observation, Kaplan-Meier (Cox mantel test), ***: p < 0.001, control 4.1; for Survival mice on Day 14: survivors/total on day 14, control 0/10
Method: Test 4: Antifungal Activity Against Candida albicans (In vivo)
After 4-week-old, male, ICR (CRJ: CD-1) mice were fasted for 6 hours, C. albicans IFM 40009 was inoculated to a tail vein of each of the mice to give an amount of 3.0×10^6 cells/mouse, whereby infection was caused. A control group consisted of 10 mice, while a medicament-administered group consisted of 5 mice. The medicament was orally administered one hour after the inoculation of the fungus and then consecutively once a day 24 hours after the inoculation, four times in total, at 1.25 mg/kg each. The survival condition during 14 days after the infection was compared. In addition, the survival days of the control group and the medicament-administered group were detected by the Kaplan-Meier method (Cox mantel test).

MIC [1] [µg/mL] | SMILES | MIC [2] [µg/mL] | MIC [3] [µg/mL] | Survival days [4] [days] | Survival mice on Day 14 [4]
0.0625 | COCCSC(F)(F)C(Cn1cncn1)(OC)c1ccc(F)cc1F (stereo not drawn) [Example 1, 1-{2-(2,4-difluorophenyl)-3,3-difluoro-2-methoxy-3-[(2-methoxyethyl)thio]propyl}-1H-1,2,4-triazole] | 64 (≈ 169 µM) | > 64 | – | –
– | CCOC(Cn1cncn1)(c1ccc(F)cc1F)C(F)(F)S(=O)(=O)CCO (stereo not drawn) [Example 10, 2-{[2-(2,4-Difluorophenyl)-2-ethoxy-1,1-difluoro-3-(1H-1,2,4-triazol-1-yl)propyl]sulfonyl}-1-ethanol] | – | – | 13.4 | 4/5
– | OC(Cn1cncn1)(Cn1cncn1)c1ccc(F)cc1F [Fluconazole, reference compound] | > 128 | > 128 | 9.6 | 0/5
– | COC(Cn1cncn1)(c1ccc(F)cc1F)C(F)(F)S(=O)(=O)CCOC(C)=O (stereo not drawn) [Example 12, 2-{[2-(2,4-Difluorophenyl)-1,1-difluoro-2-methoxy-3-(1H-1,2,4-triazol-1-yl)propyl]sulfonyl}ethyl acetate] | – | – | 14.0 | 4/5
– | COC(Cn1cncn1)(c1ccc(F)cc1F)C(F)(F)S(=O)(=O)CCO (stereo not drawn) [Example 9, 2-{[2-(2,4-Difluorophenyl)-1,1-difluoro-2-methoxy-3-(1H-1,2,4-triazol-1-yl)propyl]sulfonyl}-1-ethanol] | – | – | 14.0 | 5/5
– | COCCS(=O)(=O)C(F)(F)C(Cn1cncn1)(OC)c1ccc(F)cc1F (stereo not drawn) [Example 7, 1-{2-(2,4-difluorophenyl)-3,3-difluoro-2-methoxy-3-[(2-methoxyethyl)sulfonyl]propyl}-1H-1,2,4-triazole] | – | – | 14.0 | 5/5
